According to US7935815B2, “Imidazoyl pyridine compounds and salts thereof” (Eisai R&D Management Co., Ltd., priority 2007, dated 2011):

System: Aβ42 production
Assay: Quantification of Aβ peptide in culture of neurons from rat fetus brain (Aβ ELISA)
Type: cell-based
Details: Rattus norvegicus, Neuron, 72 h, rat primary neuronal culture (embryonic day 18 Wistar rat cerebral cortex); cultured three days after addition of compound; Aβx-42 ELISA of the medium; read-out: Aβ42 production reducing effect IC50
Procedure: Quantification of Aβ Peptide in Culture of Neurons from Rat Fetus Brain
(1) Rat Primary Neuronal Culture
Primary neuronal cultures were prepared from the cerebral cortex of embryonic day 18 Wistar rats (Charles River Japan, Yokohama, Japan). Specifically, the embryos were aseptically removed from pregnant rats under ether anesthesia. The brain was isolated from the embryo and immersed in an ice-cold L-15 medium (Invitrogen Corp. Cat #11415-064, Carlsbad, Calif., USA, or SIGMA L1518, for example). The cerebral cortex was collected from the isolated brain under a stereoscopic microscope. The cerebral cortex fragments collected were enzymatically treated in an enzyme solution containing 0.25% trypsin (Invitrogen Corp. Cat #15050-065, Carlsbad, Calif., USA) and 0.01% DNase (Sigma D5025, St. Louis, Mo., USA) at 37° C. for 30 minutes to disperse the cells. Here, the enzymatic reaction was stopped by adding inactivated horse serum to the solution. The enzymatically treated solution was centrifuged at 1,500 rpm for five minutes to remove the supernatant. 5 to 10 ml of a medium was added to the resulting cell mass. Neurobasal medium (Invitrogen Corp. Cat #21103-049, Carlsbad, Calif., USA) supplemented with 2% B27 supplement (Invitrogen Corp. Cat #17504-044, Carlsbad, Calif., USA), 25 μM 2-mercaptoethanol (2-ME, WAKO Cat #139-06861, Osaka, Japan), 0.5 mM L-glutamine (Invitrogen Corp. Cat #25030-081, Carlsbad, Calif., USA), and Antibiotics-Antimycotics (Invitrogen Corp. Cat #15240-062, Carlsbad, Calif., USA) was used as the medium (Neurobasal/B27/2-ME). However, the above Neurobasal medium not supplemented with 2-ME (Neurobasal/B27) was used for the assay. The cells were redispersed by mild pipetting of the cell mass to which the medium was added. The cell dispersion was filtered through a 40-μm nylon mesh (Cell Strainer, Cat #35-2340, Becton Dickinson Labware, Franklin Lakes, N.J., USA) to remove the remaining cell mass, and thus a neuronal cell suspension was obtained. The neuronal cell suspension was diluted with the medium and then plated in a volume of 100 μl/well at an initial cell density of 5×10^5 cells/cm^2 in a 96-well polystyrene culture plate pre-coated with poly-L or D-lysine (Falcon Cat #35-3075, Becton Dickinson Labware, Franklin Lakes, N.J., USA coated with poly-L-lysine using the method shown below, or BIOCOAT™ cell environments Poly-D-lysine cell ware 96-well plate, Cat #35-6461, Becton Dickinson Labware, Franklin Lakes, N.J., USA). Poly-L-lysine coating was carried out as follows. 100 μg/ml of a poly-L-lysine (SIGMA P2636, St. Louis, Mo., USA) solution was aseptically prepared with a 0.15 M borate buffer (pH 8.5). 100 μl/well of the solution was added to the 96-well polystyrene culture plate and incubated at room temperature for one or more hours or at 4° C. overnight or longer. The coated 96-well polystyrene culture plate was washed with sterile water four or more times, and then dried or rinsed with, for example, sterile PBS or medium, and used for cell plating. The plated cells were cultured in the culture plate at 37° C. in 5% CO2-95% air for one day. Then, the total amount of the medium was replaced with a fresh Neurobasal™/B27/2-ME medium, and then the cells were cultured for further three days.
The drug was added to the culture plate on Day 4 of culture as follows. The total amount of the medium was removed from the wells, and 180 μl/well of Neurobasal medium not containing 2-ME and containing 2% B-27 (Neurobasal/B27) was added thereto. A solution of the test compound in dimethyl sulfoxide (hereinafter abbreviated as DMSO) was diluted with Neurobasal/B27 at 10-fold of the final concentration. 20 μl/well of the dilution was added to and sufficiently mixed with the medium. The final DMSO concentration was 1% or less. Only DMSO was added to the control group.
The cells were cultured for three days after addition of the compound, and the total amount of the medium was collected. […]

COc1nc(/C=C/c2nc3n(n2)CCC[C@H]3c2cccc(C)c2F)ccc1-n1cnc(C)c1 (single isomer, unassigned) [Example 282, (−)-8-(2-fluoro-3-methylphenyl)-2-{(E)-2-[6-methoxy-5-(4-methyl-1H-imidazol-1-yl)pyridin-2-yl]vinyl}-5,6,7,8-tetrahydro-[1,2,4]triazolo[1,5-a]pyridine]
IC50: 0.029 µM

COc1cc(/C=C/c2nc3n(n2)CCCC3(O)c2cc(F)cc(F)c2)ccc1-n1cnc(C)c1 (single isomer, unassigned; (+)) [Example 80, (+)-8-(3,5-difluorophenyl)-2-{(E)-2-[3-methoxy-4-(4-methyl-1H-imidazol-1-yl)phenyl]vinyl}-5,6,7,8-tetrahydro[1,2,4]triazolo[1,5-a]pyridin-8-ol]
IC50: 0.029 µM

COc1cc(/C=C/c2nc3n(n2)CCCC3c2cccc(F)c2)ccc1-n1cnc(C)c1 (single isomer, unassigned; (-)) [Example 2, (−)-8-(3-fluorophenyl)-2-{(E)-2-[3-methoxy-4-(4-methyl-1H-imidazol-1-yl)phenyl]vinyl}-5,6,7,8-tetrahydro[1,2,4]triazolo[1,5-a]pyridine]
IC50: 0.028 µM

CCCCC(=O)c1ccc(C2CCCn3nc(/C=C/c4ccc(-n5cnc(C)c5)c(OC)c4)nc32)cc1 (single isomer, unassigned; (-)) [Example 3, (−)-1-{4-{2-{(E)-2-[3-methoxy-4-(4-methyl-1H-imidazol-1-yl)phenyl]vinyl}-5,6,7,8-tetrahydro[1,2,4]triazolo[1,5-a]pyridin-8-yl}phenyl}pentan-1-one]
IC50: 0.048 µM

COc1cc(/C=C/c2nc3n(n2)CCCC3c2ccc(C(C)C)cc2)ccc1-n1cnc(C)c1 (single isomer, unassigned; (-)) [Example 5, (−)-8-(4-isopropylphenyl)-2-{(E)-2-[3-methoxy-4-(4-methyl-1H-imidazol-1-yl)phenyl]vinyl}-5,6,7,8-tetrahydro[1,2,4]triazolo[1,5-a]pyridine]
IC50: 0.021 µM

COc1cc(/C=C/c2nc3n(n2)CCCC3c2ccc(SC)cc2)ccc1-n1cnc(C)c1 (single isomer, unassigned; (-)) [Example 7, (−)-2-{(E)-2-[3-methoxy-4-(4-methyl-1H-imidazol-1-yl)phenyl]vinyl}-8-(4-methylsulfanylphenyl)-5,6,7,8-tetrahydro-[1,2,4]triazolo[1,5-a]pyridine]
IC50: 0.03 µM

COc1cc(/C=C/c2nc3n(n2)CCCC3c2cccs2)ccc1-n1cnc(C)c1 (single isomer, unassigned; (-)) [Example 10, (−)-2-{(E)-2-[3-methoxy-4-(4-methyl-1H-imidazol-1-yl)phenyl]vinyl}-8-thiophen-2-yl-5,6,7,8-tetrahydro[1,2,4]triazolo[1,5-a]pyridine]
IC50: 0.033 µM

COc1cc(/C=C/c2nc3n(n2)CCCC3c2ccc(Br)cc2)ccc1-n1cnc(C)c1 (single isomer, unassigned; (-)) [Example 20, (−)-8-(4-bromophenyl)-2-{(E)-2-[3-methoxy-4-(4-methyl-1H-imidazol-1-yl)phenyl]vinyl}-5,6,7,8-tetrahydro-[1,2,4]triazolo[1,5-a]pyridine]
IC50: 0.03 µM

COCc1ccccc1C1CCCn2nc(/C=C/c3ccc(-n4cnc(C)c4)c(OC)c3)nc21 (single isomer, unassigned; (-)) [Example 22, (−)-2-{(E)-2-[3-methoxy-4-(4-methyl-1H-imidazol-1-yl)phenyl]vinyl}-8-(2-methoxymethylphenyl)-5,6,7,8-tetrahydro-[1,2,4]triazolo[1,5-a]pyridine]
IC50: 0.025 µM

COCc1cc(F)ccc1C1CCCn2nc(/C=C/c3ccc(-n4cnc(C)c4)c(OC)c3)nc21 (single isomer, unassigned; (-)) [Example 24, (−)-8-(4-fluoro-2-methoxymethylphenyl)-2-{(E)-2-[3-methoxy-4-(4-methyl-1H-imidazol-1-yl)phenyl]vinyl}-5,6,7,8-tetrahydro-[1,2,4]triazolo[1,5-a]pyridine]
IC50: 0.012 µM

COc1nc(/C=C/c2nc3n(n2)CCCC3c2ccccc2OC(F)(F)F)ccc1-n1cnc(C)c1 (single isomer, unassigned; (-)) [Example 283, (−)-8-(2-trifluoromethoxyphenyl)-2-{(E)-2-[6-methoxy-5-(4-methyl-1H-imidazol-1-yl)pyridin-2-yl]vinyl}-5,6,7,8-tetrahydro-[1,2,4]triazolo[1,5-a]pyridine]
IC50: 0.027 µM

COc1nc(/C=C/c2nc3n(n2)CCCC3c2ccc(F)cc2C(F)(F)F)ccc1-n1cnc(C)c1 (single isomer, unassigned; (-)) [Example 286, (−)-8-(2-trifluoromethyl-4-fluorophenyl)-2-{(E)-2-[6-methoxy-5-(4-methyl-1H-imidazol-1-yl)pyridin-2-yl]vinyl}-5,6,7,8-tetrahydro-[1,2,4]triazolo[1,5-a]pyridine]
IC50: 0.008 µM

COc1nc(/C=C/c2nc3n(n2)CCCC3c2ccccc2Br)ccc1-n1cnc(C)c1 (single isomer, unassigned; (-)) [Example 290, (−)-8-(2-bromophenyl)-2-{(E)-2-[6-methoxy-5-(4-methyl-1H-imidazol-1-yl)pyridin-2-yl]vinyl}-5,6,7,8-tetrahydro-[1,2,4]triazolo[1,5-a]pyridine]
IC50: 0.016 µM

COc1cc(/C=C/c2nc3n(n2)CCCC3c2ccccc2C(F)(F)F)ccc1-n1cnc(C)c1 (single isomer, unassigned; (-)) [Example 311, (−)-2-{(E)-2-[3-methoxy-4-(4-methyl-1H-imidazol-1-yl)phenyl]vinyl}-8-(2-trifluoromethylphenyl)-5,6,7,8-tetrahydro-[1,2,4]triazolo[1,5-a]pyridine]
IC50: 0.011 µM

COc1cc(/C=C/c2nc3n(n2)CCC3c2ccccc2C(F)(F)F)ccc1-n1cnc(C)c1 (single isomer, unassigned; (-)) [Example 317, (−)-2-{(E)-2-[3-methoxy-4-(4-methyl-1H-imidazol-1-yl)phenyl]vinyl}-7-(2-trifluoromethylphenyl)-6,7-dihydro-5H-pyrrolo[1,2-b][1,2,4]triazole]
IC50: 0.025 µM

COc1nc(/C=C/c2nc3n(n2)CCCC3c2ccccc2C)ccc1-n1cnc(C)c1 (single isomer, unassigned; (-)) [Example 319, (−)-2-{(E)-2-[6-methoxy-5-(4-methyl-1H-imidazol-1-yl)pyridin-2-yl]vinyl}-8-(o-tolyl)-5,6,7,8-tetrahydro[1,2,4]triazolo[1,5-a]pyridine]
IC50: 0.015 µM

COc1nc(/C=C/c2nc3n(n2)CCCC3c2cccc(C(F)(F)F)c2)ccc1-n1cnc(C)c1 (single isomer, unassigned; (-)) [Example 321, (−)-2-{(E)-2-[6-methoxy-5-(4-methyl-1H-imidazol-1-yl)pyridin-2-yl]vinyl}-8-(3-trifluoromethylphenyl)-5,6,7,8-tetrahydro[1,2,4]triazolo[1,5-a]pyridine]
IC50: 0.023 µM

COc1nc(/C=C/c2nc3n(n2)CCCC3c2ccccc2F)ccc1-n1cnc(C)c1 (single isomer, unassigned; (-)) [Example 327, (−)-8-(2-fluorophenyl)-2-{(E)-2-[6-methoxy-5-(4-methyl-1H-imidazol-1-yl)pyridin-2-yl]vinyl}-5,6,7,8-tetrahydro-[1,2,4]triazolo[1,5-a]pyridine]
IC50: 0.02 µM
